Measured values from patent publication US20210401929A1 (Northeast Normal University, priority 2020, published 2021).

System: lung inflammation mice model
Assay: LPS lung inflammation mice model, inflammatory factor mRNA in lung by real-time PCR
Format: in vivo
Conditions: intranasal, peptide alone without LPS

## N=C(N)NCCC[C@H](NC(=O)[C@H](CCCNC(=N)N)NC(=O)[C@H](CCCNC(=N)N)NC(=O)[C@H](CCC(N)=O)NC(=O)[C@H](CCCNC(=N)N)NC(=O)[C@H](CCCNC(=N)N)NC(=O)[C@H](CCCCN)NC(=O)[C@H](CCCCN)NC(=O)[C@H](CCCNC(=N)N)NC(=O)CNC(=O)[C@@H](N)Cc1ccc(O)cc1)C(=O)O [TAT]
  inflammation in the lungs of mice treated with peptide alone (inflammatory factor mRNA): do not cause inflammation
